Molecular target: FGFR2 (Homo sapiens, UniProt P21802)
Assay: FGFR wild type enzyme assay (HTRF KinEASE-TK), FGFR2
Conditions: Enz FGFR2 (nM), FGFR2 wild type enzyme

FGFR2, sequence (P21802 399-821 limits assumed): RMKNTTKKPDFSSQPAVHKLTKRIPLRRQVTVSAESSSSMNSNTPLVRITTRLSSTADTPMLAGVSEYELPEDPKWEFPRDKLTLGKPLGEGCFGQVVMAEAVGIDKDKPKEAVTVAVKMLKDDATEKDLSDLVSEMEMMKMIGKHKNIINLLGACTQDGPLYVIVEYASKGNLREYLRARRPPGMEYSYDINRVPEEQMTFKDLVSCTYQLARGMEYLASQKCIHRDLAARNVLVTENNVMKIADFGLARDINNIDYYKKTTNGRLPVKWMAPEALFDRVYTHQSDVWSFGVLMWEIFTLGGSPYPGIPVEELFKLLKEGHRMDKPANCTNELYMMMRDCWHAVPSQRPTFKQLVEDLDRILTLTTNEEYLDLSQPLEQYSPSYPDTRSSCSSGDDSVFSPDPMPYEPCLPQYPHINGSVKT

IC50 | Compound
5 nM | CC(=O)N1CCO[C@H](Cn2ncc(-c3cc(Sc4ncccc4F)c4c(C#N)cnn4c3)c2C)C1 [Example 234, (S)-6-(1-((4-acetylmorpholin-2-yl)methyl)-5-methyl-1H-pyrazol-4-yl)-4-((3-fluoropyridin-2-yl)thio)pyrazolo[1,5-a]pyridine-3-carbonitrile]
4 nM | Cc1c(-c2cc(Sc3ncccc3F)c3c(C#N)cnn3c2)cnn1C[C@H]1[C@@H]2CCC[C@@H]21 [Example 235, 6-(1-(((1R,5S,6r)-bicyclo[3.1.0]hexan-6-yl)methyl)-5-methyl-1H-pyrazol-4-yl)-4-((3-fluoropyridin-2-yl)thio)pyrazolo[1,5-a]pyridine-3-carbonitrile]
1 nM | Cc1c(-c2cc(Sc3ncccc3F)c3c(C#N)cnn3c2)cnn1C[C@@H]1[C@@H]2CNC[C@@H]21 [Example 236, 6-(1-(((1R,5S,6s)-3-azabicyclo[3.1.0]hexan-6-yl)methyl)-5-methyl-1H-pyrazol-4-yl)-4-((3-fluoropyridin-2-yl)thio)pyrazolo[1,5-a]pyridine-3-carbonitrile]
3 nM | CC(=O)N1C[C@@H]2[C@H](C1)[C@H]2Cn1ncc(-c2cc(Sc3ncccc3F)c3c(C#N)cnn3c2)c1C [Example 237, 6-(1-(((1R,5S,6r)-3-acetyl-3-azabicyclo[3.1.0]hexan-6-yl)methyl)-5-methyl-1H-pyrazol-4-yl)-4-((3-fluoropyridin-2-yl)thio)pyrazolo[1,5-a]pyridine-3-carbonitrile]
3 nM | CC(=O)N1C[C@@H]2[C@H](C1)[C@@H]2Cn1ncc(-c2cc(Sc3ncccc3F)c3c(C#N)cnn3c2)c1C [Example 238, 6-(1-(((1R,5S,6s)-3-acetyl-3-azabicyclo[3.1.0]hexan-6-yl)methyl)-5-methyl-1H-pyrazol-4-yl)-4-((3-fluoropyridin-2-yl)thio)pyrazolo[1,5-a]pyridine-3-carbonitrile]
3 nM | Cc1c(-c2cc(Sc3ncccc3F)c3c(C#N)cnn3c2)cnn1C[C@H]1CC[C@H](O)CC1 [Example 239, 4-((3-fluoropyridin-2-yl)thio)-6-(1-(((1r,4r)-4-hydroxycyclohexyl)methyl)-5-methyl-1H-pyrazol-4-yl)pyrazolo[1,5-a]pyridine-3-carbonitrile]
2 nM | Cc1c(-c2cc(Sc3ncccc3F)c3c(C#N)cnn3c2)cnn1C1CCN(Cc2ccccn2)CC1 [Example 240, 4-((3-fluoropyridin-2-yl)thio)-6-(5-methyl-1-(1-(pyridin-2-ylmethyl)piperidin-4-yl)-1H-pyrazol-4-yl)pyrazolo[1,5-a]pyridine-3-carbonitrile]
1 nM | Cc1c(-c2cc(Sc3ncccc3F)c3c(C#N)cnn3c2)cnn1[C@H]1CC[C@@H](N(C)CCO)CC1 [Example 241, 4-((3-fluoropyridin-2-yl)thio)-6-(1-((1s,4s)-4-((2-hydroxyethyl)(methyl)ami-no)cyclohexyl)-5-methyl-1H-pyrazol-4-yl)pyrazolo[1,5-a]pyridine-3-carbonitrile]
1 nM | CCN[C@H]1CC[C@@H](n2ncc(-c3cc(Sc4ncccc4F)c4c(C#N)cnn4c3)c2C)CC1 [Example 242, 6-(1-((1s,4s)-4-(ethylamino)cyclohexyl)-5-methyl-1H-pyrazol-4-yl)-4-((3-fluoropyridin-2-yl)thio)pyrazolo[1,5-a]pyridine-3-carbonitrile]
1 nM | Cc1c(-c2cc(Sc3ncccc3F)c3c(C#N)cnn3c2)cnn1[C@H]1CC[C@@H](NC(C)C)CC1 [Example 243, 4-((3-fluoropyridin-2-yl)thio)-6-(1-((1s,4s)-4-(isopropylamino)cyclohex-yl)-5-methyl-1H-pyrazol-4-yl)pyrazolo[1,5-a]pyridine-3-carbonitrile]
2.5 nM | Cc1c(-c2cc(Sc3ncccc3F)c3c(C#N)cnn3c2)cnn1[C@H]1CC[C@@H](NCC(F)(F)F)CC1 [Example 244, 4-((3-fluoropyridin-2-yl)thio)-6-(5-methyl-1-((1s,4s)-4-((2,2,2-trifluoroethyl)amino)cyclo-hexyl)-1H-pyrazol-4-yl)pyrazolo[1,5-a]pyridine-3-carbonitrile]
2.5 nM | CC(=O)N1C[C@H]2C[C@H](n3ncc(-c4cc(Sc5ncccc5F)c5c(C#N)cnn5c4)c3C)C[C@H]2C1 [Example 245, 6-(1-((3aR,5s,6aS)-2-acetyloctahydrocylcopenta [c]pyrrol-5-yl)-5-methyl-1H-pyrazol-4-yl)-4-((3-fluoropyridin-2-yl)thio)pyrazolo[1,5-a]pyridine-3-carbonitrile]
4 nM | Cc1c(-c2cc(Sc3ncccc3F)c3c(C#N)cnn3c2)cnn1[C@H]1C[C@H](CO)C1 [Example 246, 4-((3-fluoropyridin-2-yl)thio)-6-(1-((1r,3r)-3-(hydroxymethyl)cyclobutyl)-5-methyl-1H-pyrazol-4-yl)pyrazolo[1,5-a]pyridine-3-carbonitrile]
1 nM | CN(C)[C@H]1CC[C@@H](n2cc(-c3cc(Sc4ncccc4F)c4c(C#N)cnn4c3)cn2)CC1 [Example 247, 6-(1-((1s,4s)-4-(dimethylamino)cyclohex-yl)-1H-pyrazol-4-yl)-4-((3-fluoropyridin-2-yl)thio)pyrazolo[1,5-a]pyridine-3-carbonitrile]
2 nM | CC(=O)N(C)[C@H]1CC[C@@H](n2ncc(-c3cc(Sc4ncccc4F)c4c(C#N)cnn4c3)c2C)CC1 [Example 248, N-((1s,4s)-4-(4-(3-cyano-4-((3-fluoropyridin-2-yl)thio)pyrazolo[1,5-a]pyridin-6-yl)-5-methyl-1H-pyrazol-1-yl)cyclohexyl)-N-methylacetamide]
3 nM | Cc1c(-c2cc(Sc3ncccc3F)c3c(C#N)cnn3c2)cnn1[C@H]1CC[C@@H](N(C)S(C)(=O)=O)CC1 [Example 249, N-((1s,4s)-4-(4-(3-cyano-4-((3-fluoropyridin-2-yl)thio)pyrazolo[1,5-a]pyridin-6-yl)-5-methyl-1H-pyrazol-1-yl)cyclohexyl)-N-methylmethanesulfonamide]
0.4 nM | CCN[C@H]1CC[C@@H](n2ncc(-c3cc(Sc4ccccc4C#N)c4c(C#N)cnn4c3)c2C)CC1 [Example 250, 4-((2-cyanophenyl)thio)-6-(1-((1s,4s)-4-(ethylamino)cylcohexyl)-5-methyl-1H-pyrazol-4-yl)pyrazolo[1,5-a]pyridine-3-carbonitrile]
0.5 nM | Cc1c(-c2cc(Sc3ccccc3C#N)c3c(C#N)cnn3c2)cnn1[C@H]1CC[C@@H](NC(C)C)CC1 [Example 251]
1 nM | Cc1c(-c2cc(Sc3ncccc3F)c3c(C#N)cnn3c2)cnn1C1CCNC(C)C1 (centres unmarked) [Example 252, 4-((3-fluoropyridin-2-yl)thio)-6-(5-methyl-1-(2-methylpiperidin-4-yl)-1H-pyrazol-4-yl)pyrazolo[1,5-a]pyridine-3-carbonitrile]
0.6 nM | Cc1c(-c2cc(Sc3ncccc3F)c3c(C#N)cnn3c2)cnn1[C@H]1CC[C@@H](NCC2(C)CC2)CC1 [Example 253, 4-((3-fluoropyridin-2-yl)thio)-6-(5-methyl-1-((1s,4s)-4-(((1-methylcyclopropyl)methyl)amino)cyclohexyl)-1H-pyrazol-4-yl)pyrazolo[1,5-a]pyridine-3-carbonitrile]
1 nM | Cc1c(-c2cc(Sc3ncccc3F)c3c(C#N)cnn3c2)cnn1[C@H]1CC[C@@H](N(C)C(=O)C(C)(C)N)CC1 [Example 254, 2-amino-N-((1s,4s)-4-(4-(3-cyano-4-((3-fluoropyridin-2-yl)thio)pyrazolo[1,5-a]pyridin-6-yl)-5-methyl-1H-pyrazol-1-y)cyclohexyl)-N,2-dimethylpropanamide]
0.3 nM | CN[C@H]1CC[C@@H](n2ncc(-c3cc(Sc4ccc(F)cc4C#N)c4c(C#N)cnn4c3)c2C)CC1 [Example 255, 4-((2-cyano-4-fluorophenyl)thio)-6-(5-methyl-1-((1s,4s)-4-(methylamino)cyclohexyl)-1H-pyrazol-4-yl)pyrazolo[1,5-a]pyridine-3-carbonitrile]
1 nM | CCN(C)[C@H]1CC[C@@H](n2ncc(-c3cc(Sc4ccccc4C#N)c4c(C#N)cnn4c3)c2C)CC1 [Example 256, 4-((2-cyanophenyl)thio)-6-(1-((1s,4s)-4-(ethyl(methyl)amino)cyclo-hexyl)-5-methyl-1H-pyrazol-4-yl)pyrazolo[1,5-a]pyridine-3-carbonitrile]
0.5 nM | Cc1c(-c2cc(Sc3ccccc3C#N)c3c(C#N)cnn3c2)cnn1[C@H]1CC[C@@H](NCC2(C)CC2)CC1 [Example 257, 4-((2-cyanophenyl)thio)-6-(5-methyl-1-((1s,4s)-4-(((1-methylcyclopropyl)methyl)amino)cyclohexyl)-1H-pyrazol-4-yl)pyrazolo[1,5-a]pyridine-3-carbonitrile]
2 nM | N#Cc1ccccc1Sc1cc(-c2cnn(CC(F)(F)F)c2)cn2ncc(C#N)c12 [Example 258]
1.5 nM | CC(=O)N1C[C@H]2C[C@@H](n3ncc(-c4cc(Sc5ncccc5F)c5c(C#N)cnn5c4)c3C)C[C@H]2C1 [Example 259, 6-(1-((3aR,5r,6aS)-2-acetyloctahydrocyclopenta [c]pyrrol-5-yl)-5-methyl-1H-pyrazol-4-yl)-4-((3-fluoropyridin-2-yl)thio)pyrazolo[1,5-a]pyridine-3-carbonitrile]
1 nM | Cc1c(-c2cc(Sc3ccccc3C#N)c3c(C#N)cnn3c2)cnn1[C@H]1CC[C@@](C)(O)CC1 [Example 260, 4-(2-cyanophenyl)sulfanyl-6-[1-(4-hydroxy-4-methyl-cyclohexyl)-5-methyl-pyrazol-4-yl]pyrazolo[1,5-a]pyridine-3-carbonitrile]
0.5 nM | Cc1c(-c2cc(Sc3ccccc3C#N)c3c(C#N)cnn3c2)cnn1[C@H]1CC[C@](C)(O)CC1 [Example 261, 4-((2-cyanophenyl)thio)-6-(1-((1r,4r)-4-hydroxy-4-methylcyclohexyl)-5-methyl-1H-pyrazol-4-yl)pyrazolo[1,5-a]pyridine-3-carbonitrile]
3 nM | CC(=O)N1[C@@H]2CC[C@H]1C[C@@H](n1ncc(-c3cc(Sc4ncccc4F)c4c(C#N)cnn4c3)c1C)C2 [Example 262, 6-(1-((1R,3r,5S)-8-acetyl-8-azabicyclo[3.2.1]octan-3-yl)-5-methyl-1H-pyrazol-4-yl)-4-((3-fluoropyridin-2-yl)thio)pyrazolo[1,5-a]pyridine-3-carbonitrile]
